Data from PubChem BioAssay AID1963985 (Molecular Pharmacology Branch, DTP, NCI, 2024).

Tested on: 252836-082-R-J2-PDC tumor spheroids, viability
Assay: Anticancer human tumor 252836-082-R-J2-PDC patient-derived head and neck squamous cell carcinoma cell line growth inhibition [PI3K]
Conditions: spheroids with HUVEC and MSC; for viability, T/C: stronger effect = lower value
Procedure, shortened: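 Complex 3D spheroids (cancer cells + endothelial HUVEC + mesenchymal stem cells); drug pairs of targeted agent x inavolisib/alpelisib/duvelisib/copanlisib; half-log series from ~Cmax, max 10 microM if Cmax unknown; endpoint viability.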
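Further: spheroids exposed to agents for seven days before readout.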
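Wherever viability, T/C is given: percent of vehicle DMSO control viability so 100% = untreated growth.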

For `Cn1ncc(Cl)c1-c1cc(C(=O)NC(CN)Cc2cccc(F)c2)sc1Cl` (stereo unspecified), the viability, T/C (compound 0.0316 µM) was 84.6% [middle of 4 runs], the viability, T/C (compound 0.1 µM) was 85% [middle of 4 runs] and the viability, T/C (compound 0.316 µM) was 66.9% [middle of 4 runs]. For the same molecule, the viability, T/C (compound 1 µM) was 42.4% [middle of 4 runs], the viability, T/C (compound 3.16 µM) was 30.8% [middle of 4 runs] and the viability, T/C (compound 10 µM) was 12.7% [middle of 4 runs]. For the same molecule, the IC50 (curve of compound) was 684 nM [middle of 4 runs].

`Cn1nccc1Nc1nccc(-c2ccn(C(CO)c3ccc(Cl)c(F)c3)c(=O)c2)n1` (stereo unspecified) was tested, and the viability, T/C (compound 0.0316 µM) was 95.5% [middle of 4 runs], the viability, T/C (compound 0.1 µM) was 100% [middle of 4 runs] and the viability, T/C (compound 0.316 µM) was 96.9% [middle of 4 runs]. The viability, T/C (compound 1 µM) was 96.5% [middle of 4 runs], the viability, T/C (compound 3.16 µM) was 85.2% [middle of 4 runs] and the viability, T/C (compound 10 µM) was 74.2% [middle of 4 runs]. It also gave an IC50 (curve of compound) greater than 10 µM.

`C#Cc1c(F)ccc2cc(O)cc(-c3ncc4c(N5CC6CCC(C5)N6)nc(OCC56CCCN5CC(F)C6)nc4c3F)c12` (stereo unspecified) + COc1c(OCCCN2CCOCC2)ccc2c3n(c(=NC(=O)c4cnc(N)nc4)nc12)CCN3 showed an IC50 (curve of first compound, second compound 0.00316 µM) greater than 10 µM, an IC50 (curve of first compound, second compound 0.01 µM) greater than 10 µM and an IC50 (curve of first compound, second compound 0.0316 µM) of 3.8 µM. For the same molecule, the IC50 (curve of first compound, second compound 0.1 µM) was less than 0.0316 µM, the IC50 (curve of first compound, second compound 0.316 µM) was less than 0.0316 µM and the IC50 (curve of first compound, second compound 1 µM) was less than 0.0316 µM. It also gave a viability, T/C (second compound 0.00316 µM, first compound 0.0316 µM) of 75.2%, a viability, T/C (second compound 0.00316 µM, first compound 0.1 µM) of 79.9% and a viability, T/C (second compound 0.00316 µM, first compound 0.316 µM) of 105%. The viability, T/C (second compound 0.00316 µM, first compound 1 µM) was 76.8%, the viability, T/C (second compound 0.00316 µM, first compound 3.16 µM) was 72.5% and the viability, T/C (second compound 0.00316 µM, first compound 10 µM) was 67%. It also gave a viability, T/C (second compound 0.01 µM, first compound 0.0316 µM) of 76.5%, a viability, T/C (second compound 0.01 µM, first compound 0.1 µM) of 76.8% and a viability, T/C (second compound 0.01 µM, first compound 0.316 µM) of 72.2%. For the same molecule, the viability, T/C (second compound 0.01 µM, first compound 1 µM) was 70%, the viability, T/C (second compound 0.01 µM, first compound 3.16 µM) was 60.2% and the viability, T/C (second compound 0.01 µM, first compound 10 µM) was 53.2%. The viability, T/C (second compound 0.0316 µM, first compound 0.0316 µM) was 53.5%, the viability, T/C (second compound 0.0316 µM, first compound 0.1 µM) was 62% and the viability, T/C (second compound 0.0316 µM, first compound 0.316 µM) was 53.7%. The viability, T/C (second compound 0.0316 µM, first compound 1 µM) was 57.2%, the viability, T/C (second compound 0.0316 µM, first compound 3.16 µM) was 52.7% and the viability, T/C (second compound 0.0316 µM, first compound 10 µM) was 34.9%. The viability, T/C (second compound 0.1 µM, first compound 0.0316 µM) was 40.4%, the viability, T/C (second compound 0.1 µM, first compound 0.1 µM) was 37.9% and the viability, T/C (second compound 0.1 µM, first compound 0.316 µM) was 36.5%. The viability, T/C (second compound 0.1 µM, first compound 1 µM) was 32.8%, the viability, T/C (second compound 0.1 µM, first compound 3.16 µM) was 37.6% and the viability, T/C (second compound 0.1 µM, first compound 10 µM) was 18.4%. It also gave a viability, T/C (second compound 0.316 µM, first compound 0.0316 µM) of 16.9%, a viability, T/C (second compound 0.316 µM, first compound 0.1 µM) of 15.7% and a viability, T/C (second compound 0.316 µM, first compound 0.316 µM) of 13.2%. The viability, T/C (second compound 0.316 µM, first compound 1 µM) was 15.3%, the viability, T/C (second compound 0.316 µM, first compound 3.16 µM) was 12.9% and the viability, T/C (second compound 0.316 µM, first compound 10 µM) was 4.25%. It also gave a viability, T/C (second compound 1 µM, first compound 0.0316 µM) of 4.39%, a viability, T/C (second compound 1 µM, first compound 0.1 µM) of 4.93% and a viability, T/C (second compound 1 µM, first compound 0.316 µM) of 4.55%. It also gave a viability, T/C (second compound 1 µM, first compound 1 µM) of 4.71%, a viability, T/C (second compound 1 µM, first compound 3.16 µM) of 2.91% and a viability, T/C (second compound 1 µM, first compound 10 µM) of 0.25%.
